Measurements reported in US9987361B1, “Compositions and method for sustained drug delivery by active transdermal technology” (Noven Pharmaceuticals, Inc., priority 2014, dated 2018).

Columns and labels:
[1] = system: microchannels in skin made by a microneedle device; assay: In vivo transepidermal water loss (TEWL) after microneedle pretreatment; details: swine; DPG formulated with saturated compound, applied after microneedle pretreatment; FIG. 4
Procedure: Transepidermal water loss (TEWL) was assessed in vivo in swine as an indicator of skin integrity before and after microneedle pretreatment, using dipropylene glycol (DPG) formulated with saturated (i) cholesterol, (ii) curcumin, (iii) glycyrrhizin, (iv) diclofenac, or (v) no anti-healing compound. The diclofenac formulation was used as a positive control, and the formulation with no anti-healing compound was used as a negative control. Microneedle devices were inserted into swine skin with an applicator and removed, followed by application of the formulations. TEWL was measured before and after microneedle pretreatment, and during application of the formulations (formulations were removed and reapplied at every time point).
FIG. 4 illustrates the in vivo transepidermal water loss measured before and after microneedle pretreatment for the five formulations.

[2] = system: microchannels in skin made by a microneedle device; assay: In vivo impedance after microneedle pretreatment; details: swine; DPG formulated with saturated compound, applied after microneedle pretreatment; FIG. 5
Procedure: Impedance (Z) was assessed in vivo in swine as a measure of skin integrity using the compositions described above. Microneedle devices were inserted into swine with an applicator and removed, followed by application of the formulations. Impedance was measured before and after microneedle pretreatment, and during application of the formulations (formulations were removed and reapplied at every time point).
FIG. 5 illustrates the in vivo impedance measured before and after microneedle pretreatment for the five formulations.

microchannels = details: reported in the literature; cited from earlier work

| Compound | transepidermal water loss (TEWL), sustained level [1] | impedance (Z) [2] | lifetime of microchannels (microchannels) |
| --- | --- | --- | --- |
| CC(C)CCC[C@@H](C)[C@H]1CC[C@H]2[C@@H]3CC=C4C[C@@H](O)CC[C@]4(C)[C@H]3CC[C@]12C [cholesterol] | higher sustained levels of TEWL than the formulation with no anti-healing compound | low impedance throughout the study |  |
| O=C(O)Cc1ccccc1Nc1c(Cl)cccc1Cl [diclofenac, reference compound] | highest sustained level of TEWL | low impedance throughout the study | extend the lifetime of microchannels |
| COc1cc(/C=C/C(=O)CC(=O)/C=C/c2ccc(O)c(OC)c2)ccc1O [curcumin] | higher sustained levels of TEWL than the formulation with no anti-healing compound | low impedance throughout the study |  |
| CC1(C)[C@@H](O[C@H]2O[C@H](C(=O)O)[C@@H](O)[C@H](O)[C@H]2O[C@@H]2O[C@H](C(=O)O)[C@@H](O)[C@H](O)[C@H]2O)CC[C@]2(C)[C@H]3C(=O)C=C4[C@@H]5C[C@@](C)(C(=O)O)CC[C@]5(C)CC[C@@]4(C)[C@]3(C)CC[C@@H]12 [glycyrrhizin] | higher sustained levels of TEWL than the formulation with no anti-healing compound | low impedance throughout the study |  |
